Assay results published in patent publication US20220378756A1, “ACTIVATING PYRUVATE KINASE R” (FORMA Therapeutics, Inc., priority 2019, published 2022).

System: 2,3-DPG, ATP and p50 in blood
Test: Phase 1 SAD/MAD, healthy volunteers: pharmacodynamics
Format: in vivo, human
Conditions: for Median Percentage Change in 2,3-DPG Levels: HV
Text: This is a first-in-human (FIH), Phase 1 study of Compound 1 that will characterize the safety, PK, and PD of Compound 1 after a single dose and after repeated dosing first in healthy adult volunteers and then in adolescents or adults with sickle cell disease. Initially, a dose range of Compound 1 in single ascending dose (SAD) escalation cohorts will be explored in healthy subjects. Enrollment of healthy subjects into 2-week multiple ascending dose (MAD) escalation cohorts will be initiated once the safety and PK from at least two SAD cohorts is available to inform the doses for the 2-week MAD portion of the study. The MAD cohorts will then run in parallel to the single dose cohorts. A single dose cohort is planned to understand food effects (FE) on the PK of Compound 1. […] Multiple dose studies in SCD subjects will then be initiated upon completion of MAD studies in healthy volunteers. Compound 1 will be administered in 25 mg and 100 mg tablets delivered orally.
In this study, SAD/MAD cohorts are randomized (3 to 1) to receive Compound 1 or placebo (P). Compound 1 was evaluated first in 4 healthy SAD cohorts and 4 healthy MAD (14-day dosing period) cohorts. Based on the safety, and PK/PD profile from HS, Compound 1 is then evaluated in 1 SCD SAD cohort and 2 SCD MAD cohorts. Specifically, based on the safety and pharmacokinetic/pharmacodynamics (PK/PD) profile in healthy volunteer studies, Compound 1 is evaluated in patients (pts) with SCD, first in a single dose (SD or SAD) cohort and then in multiple-dose (MD or MAD) cohorts (14-day and 12-week). Safety assessments include AEs, vital signs, ECGs and laboratory parameters. PK/PD blood sampling was performed on Day 1 (SAD/MAD) and Day 14 (MAD) and up to 72 h after the last dose and at the end-of-study visit. PD parameters included 2,3-DPG, ATP, and p50 in all cohorts with additional PD studies (including oxygen scan) performed only in the SCD cohorts. PD parameters included 2,3-DPG, ATP, p50, RBC deformability with controlled deoxygenation and reoxygenation (Lorrca® oxygen scan) and varying osmolality (Lorrca® osmoscan)). To maintain study blind, pt identifiers were removed when needed.
Four healthy SAD cohorts were evaluated at doses of 200, 400, 700, and 1000 mg, and four healthy MAD cohorts received 200 to 600 mg total daily doses for 14 days at QD or BID dosing (100 mg BID, 200 mg BID, 300 mg BID, and 400 mg QD). In the food effect (FE) cohort, 10 healthy subjects received 200 mg of Compound 1 QD with and without food.
In the SAD cohorts, the subjects' blood 2,3-DPG levels were measured periodically after dosing by a qualified LC-MS/MS method for the quantitation of 2,3-DPG in blood. Decreased 2,3-DPG blood levels were observed 6 hours following a single dose of Compound 1 at all dose levels (earlier timepoints were not collected). Maximum decreases in 2,3-DPG levels generally occurred ˜24 hours after the first dose with the reduction sustained ˜48-72 hr postdose. Table 16 reports the median percentage change in 2,3-DPG blood levels, relative to baseline, measured over time in healthy volunteers after a single dose of Compound 1 (200 mg, 400 mg, 700 mg, or 1000 mg) or placebo. Accordingly, the median reduction in the concentration of 2,3-DPG, relative to baseline, was at least about […] at all dose levels tested 24 hours after administration of the single dose.
In the MAD cohorts, the subjects' blood 2,3-DPG levels were measured periodically after dosing by a qualified LC-MS/MS method for the quantitation of 2,3-DPG in blood. The maximum decrease in 2,3-DPG on Day 14 was 55% from baseline (median). […] Table 18 reports the median percentage change in 2,3-DPG blood levels, relative to baseline, measured over time after the first dose on days 1 and 14 in healthy volunteers who received daily doses of Compound 1 (100 mg BID, 200 mg BID, or 300 mg BID) or placebo for 14 days. […]

[1] = MAD, N = 36, all doses and timepoints
[2] = SAD, N = 24, all doses and timepoints

With `O=C([C@H](CO)c1ccccc1)N1CC2=C(C1)CN(S(=O)(=O)c1cnc3c(c1)OCCO3)C2` (single isomer, unassigned) [Compound 1] the “Median Percentage Change in 2,3-DPG Levels” value (“Median Percentage Change” for short) (300 mg BID, Day 1, 16 h after first daily dose) was −40.7%, the “Median Percentage Change” value (300 mg BID, Day 1, 24 h after first daily dose) was −50.8% and the “Median Percentage Change” value (300 mg BID, Day 14, 0 h after first daily dose) was −59.4%. For the same compound, the “Median Percentage Change” value (300 mg BID, Day 14, 6 h after first daily dose) was −53.0%, the “Median Percentage Change” value (300 mg BID, Day 14, 8 h after first daily dose) was −54.2% and the “Median Percentage Change” value (300 mg BID, Day 14, 12 h after first daily dose) was −55.3%. For the same compound, the “Median Percentage Change” value (300 mg BID, Day 14, 16 h after first daily dose) was −52.4%, the “Median Percentage Change” value (300 mg BID, Day 14, 24 h after first daily dose) was −52.1% and the “Median Percentage Change” value (300 mg BID, Day 14, 48 h after first daily dose) was −44.5%. The “Median Percentage Change” value (300 mg BID, Day 14, 72 h after first daily dose) was −32.9%, the “Median Percentage Change” value (single dose 200 mg, 0 h after dose) was 0.0% and the “Median Percentage Change” value (single dose 200 mg, 6 h after dose) was −18%. For the same compound, the “Median Percentage Change” value (single dose 200 mg, 8 h after dose) was −17%, the “Median Percentage Change” value (single dose 200 mg, 12 h after dose) was −25% and the “Median Percentage Change” value (single dose 200 mg, 16 h after dose) was −33%. The “Median Percentage Change” value (single dose 200 mg, 24 h after dose) was −31%, the “Median Percentage Change” value (single dose 200 mg, 36 h after dose) was −33% and the “Median Percentage Change” value (single dose 200 mg, 48 h after dose) was −29%. The “Median Percentage Change” value (single dose 200 mg, 72 h after dose) was −18%, the “Median Percentage Change” value (single dose 400 mg, 0 h after dose) was 0.0% and the “Median Percentage Change” value (single dose 400 mg, 6 h after dose) was −23%. The “Median Percentage Change” value (single dose 400 mg, 8 h after dose) was −29%, the “Median Percentage Change” value (single dose 400 mg, 12 h after dose) was −40% and the “Median Percentage Change” value (single dose 400 mg, 16 h after dose) was −35%. The “Median Percentage Change” value (single dose 400 mg, 24 h after dose) was −39%, the “Median Percentage Change” value (single dose 400 mg, 36 h after dose) was −38% and the “Median Percentage Change” value (single dose 400 mg, 48 h after dose) was −31%. The “Median Percentage Change” value (single dose 400 mg, 72 h after dose) was −30%, the “Median Percentage Change” value (single dose 700 mg, 0 h after dose) was 0.0% and the “Median Percentage Change” value (single dose 700 mg, 6 h after dose) was −29%. The “Median Percentage Change” value (single dose 700 mg, 8 h after dose) was −28%, the “Median Percentage Change” value (single dose 700 mg, 12 h after dose) was −41% and the “Median Percentage Change” value (single dose 700 mg, 16 h after dose) was −46%. The “Median Percentage Change” value (single dose 700 mg, 24 h after dose) was −49%, the “Median Percentage Change” value (single dose 700 mg, 36 h after dose) was −46% and the “Median Percentage Change” value (single dose 700 mg, 48 h after dose) was −48%. For the same compound, the “Median Percentage Change” value (single dose 700 mg, 72 h after dose) was −33%, the “Median Percentage Change” value (single dose 1000 mg, 0 h after dose) was 0.0% and the “Median Percentage Change” value (single dose 1000 mg, 6 h after dose) was −20%. The “Median Percentage Change” value (single dose 1000 mg, 8 h after dose) was −31%, the “Median Percentage Change” value (single dose 1000 mg, 12 h after dose) was −44% and the “Median Percentage Change” value (single dose 1000 mg, 16 h after dose) was −50%. The “Median Percentage Change” value (single dose 1000 mg, 24 h after dose) was −48%, the “Median Percentage Change” value (single dose 1000 mg, 36 h after dose) was −47% and the “Median Percentage Change” value (single dose 1000 mg, 48 h after dose) was −47%. For the same compound, the “Median Percentage Change” value (single dose 1000 mg, 72 h after dose) was −21%, the “mean maximum reduction in the concentration of 2,3-DPG” value (MAD study) was “at least 50%” and the “mean maximum reduction in the concentration of 2,3-DPG, range” value (MAD study) was 46.1-63.6%. For the same compound, the “Mean Maximum Percent Change from Baseline, 2,3-DPG” value [1] was −56.3%, the “Mean Maximum Percent Change from Baseline, ATP” value [1] was 68.5% and the “mean maximum reduction in the concentration of 2,3-DPG” value (SAD study) was “at least 40%”. The “mean maximum reduction in the concentration of 2,3-DPG, range” value (SAD study) was 35.4-56.1%, the “Mean Maximum Percent Change from Baseline, 2,3-DPG” value [2] was −46.8% and the “Mean Maximum Percent Change from Baseline, ATP” value [2] was 24.4%.
